Laboratory results from patent publication US8008074B2, “Compositions and methods for improving bone mass through modulation of receptors of PTH and fragments thereof” (The UAB Research Foundation, priority 2006, dated 2011).
“Also recorded” adds a separate entry of the source.

Assays:
Format in all cases: cell-based
[1] = system: Wnt responsive luciferase reporter (TCF4-Luc); experiment: TCF4-Luc luciferase reporter assay in UMR 106 cells; conditions: for TCF luciferase activity: 5×10^−7 M of indicated PTH ligands for 12 hours
β-catenin = β-catenin stabilization, Western blot of UMR 106 cell fractions; conditions: UMR 106 cells; for inhibition of PTH-induced β-catenin stabilization: inhibitor 30 minutes before 10^−7 M PTH (1-84) for 1 hour, cytosolic fraction
LRP6/Axin binding = experiment: Axin-LRP6 binding immunoprecipitation assay; conditions: for inhibition of PTH-induced binding of Axin to LRP6: pre-treatment 30 minutes, then PTH (1-84) for 1 hour; for Axin-LRP6 binding: HEK 293 cells cotransfected with LRP6, Axin and GSK3β, ligand for 1 hour
Axin = Axin protein levels; conditions: cells overexpressing LRP6
Description: Binding of Axin to phosphorylated LRP6 leads to rapid degradation. Then inhibition of Axin/LRP6 binding should […] degradation of Axin. Indeed, Axin degradation is reduced by both inhibitors (data not shown). […] PKA and PKC also were examined to determine whether they regulate PTH-induced PTH1R/LRP6 complex formation. […] Apparently, the receptor complex formation is independent of activation of PKA and PKC. Instead, it seems that activation of G protein-mediated PKA and PKC signaling is in parallel with the recruitment of LRP5/6 in PTH signaling. PKA and PKC activity is required for LRP5/6 phosphorylation and Axin/LRP6 binding.
Wnts induce binding of Axin to phosphorylated LRP6, and the membrane-bound Axin undergoes rapid protein dephosphorylation and degradation, which eventually leads to β-catenin stabilization Willert et al., 1999; Yamamoto et al., 1999).

PTH1R/LRP5/6 complex = target: T1, PTH1R/LRP5/6 complex (Rattus norvegicus, UniProt P25961); experiment: Co-immunoprecipitation of endogenous PTH1R with LRP5/6 in UMR-106 cells; conditions: 5×10^−7 M PTH (1-84)
T1 construct: endogenous in cells; host or cells: UMR-106
T1 sequence (P25961 27-591): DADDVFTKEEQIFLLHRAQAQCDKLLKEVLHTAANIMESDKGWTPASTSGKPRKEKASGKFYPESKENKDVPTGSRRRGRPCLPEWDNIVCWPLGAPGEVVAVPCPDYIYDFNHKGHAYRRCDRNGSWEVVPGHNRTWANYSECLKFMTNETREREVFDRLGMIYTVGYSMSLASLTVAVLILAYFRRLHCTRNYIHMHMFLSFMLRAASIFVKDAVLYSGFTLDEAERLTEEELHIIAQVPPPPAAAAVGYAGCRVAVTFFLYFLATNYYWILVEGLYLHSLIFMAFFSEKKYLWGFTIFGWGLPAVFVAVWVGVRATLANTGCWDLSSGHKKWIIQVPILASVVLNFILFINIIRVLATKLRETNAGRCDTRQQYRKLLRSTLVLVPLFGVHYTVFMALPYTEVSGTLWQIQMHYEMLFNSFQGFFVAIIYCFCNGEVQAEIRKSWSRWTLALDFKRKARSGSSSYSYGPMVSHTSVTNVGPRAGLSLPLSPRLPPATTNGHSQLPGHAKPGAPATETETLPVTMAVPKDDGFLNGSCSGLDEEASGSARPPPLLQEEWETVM
Protocol: Endogenous LRP5 or LRP6 was coimmunoprecipitated with PTH1R in UMR 106 cells. UMR 106 cells were treated with 5×10^−7 M PTH (1-84) for indicated times. […] VSVG-tagged LRP6 was cotransfected into HEK 293 cells with HA-PTH1R, and the cells were treated with 5×10^−7 M PTH (1-84) for 1 hour. The LRP6-associated PTH ligand was determined by Western blotting of the anti-VSVG immunoprecipitates. […] VSVG-tagged LRP6, LRP6N, or LRP6C was cotransfected into HEK 293 cells with HA-PTH1R, and the cells were treated with or without 5×10^−7 M PTH (1-84) for 1 hour. The PTH1R-associated LRP6, LRP6N, or LRP6C was determined by Western blotting of the anti-HA immunoprecipitates, and the LRP6-, LRP6N- or LRP6C-associated PTH1R and PTH ligand was determined by Western blotting with an anti-VSVG antibody. […] The PTH1R-associated LRP6 was determined by Western blotting. […] The effect of LRP-6N on PTH-induced TCF4 activation was determined by luciferase assays.
To determine if PTH (1-84) induced the formation of a complex of endogenous PTH1R with LRP5/6, an immunoprecipitation assay in osteoblastic UMR-106 cells was used. […] The cell lysates isolated from transfected cells treated with or without PTH were subjected to immunoprecipitation with anti-PTH1R antibodies, and the immunocomplex was detected by Western blotting with a monoclonal antibody that recognizes both LRP5 and LRP6. […]

[2] = system: TGF-β-induced transcription activity; experiment: Smad binding response luciferase reporter (SBE-luc) in 293 cells; conditions: TGF-β 2 ng/ml, 50 nM
Protocol: A Smad binding response luciferase reporter (SBE-luc) was transfected into 293 cells. TGF-β (2 ng/ml) was added in combination with different doses of PTH (1-34) or cPTH (39-84). Twenty-four hours after transfection, the cells were lysed and the luciferase signal was detected. Luciferase values shown in the figures are representative of transfection experiments performed in triplicate in at least three independent experiments. The relative increased fold of the luciferase activity stimulated by TGF-β in each cell line was calculated.
A Smad binding response luciferase reporter (SBE-luc) was introduced into the multi-cloning site of pcDNA3 (Invitrogen), and the resulting vector was transfected into 293 cells using Lipofectamine Plus reagent (Invitrogen, Cat. No. 10964-013). TGF-β (2 ng/ml) was added in combination with different doses of PTH (1-34) (50 nM) or cPTH (39-84) (50 nM). […] Forty-two hours after transfection, the cells were lysed, and the luciferase signal was detected using the Dual Luciferase assay kit (Promega) according to the manufacturer's instructions.
Luciferase values shown in the figures are representative of transfection experiments performed in triplicate in at least three independent experiments. The relative increased fold of the luciferase activity stimulated by TGF-β in each cell line was calculated.

Axin-LRP6 binding (LRP6/Axin binding) | Compound | inhibition of PTH-stimulated TCF4-luciferase reporter activity [1] | inhibition of PTH-induced β-catenin stabilization (β-catenin) | inhibition of PTH-induced binding of Axin to LRP6 (LRP6/Axin binding) | Axin protein levels (Axin) | TCF luciferase activity [1] | further results
– | O=S(=O)(NCCNC/C=C/c1ccc(Br)cc1)c1cccc2cnccc12 [H89] | inhibited activity from a TCF4-luciferase reporter | inhibit PTH-induced β-catenin stabilization | inhibit the binding of Axin with LRP6 | – | – | –
– | Calphostin C | inhibited activity from a TCF4-luciferase reporter | less effective; also recorded: inhibit PTH-induced β-catenin stabilization | much weaker; also recorded: inhibit the binding of Axin with LRP6 | – | – | –
did not | PTH 79-84: C-terminal PTH ligand as printed; possibly misprint of 39-84 (TKAKSQ; Parathyroid hormone; UniProt P01270 110-115, looked up, fragment) | – | – | – | did not affect Axin level | – | –
induces LRP6/Axin binding | PTH (1-84): Full-length PTH or PTH ligand, 84 amino acids long, represented as 1-84 | – | – | – | further downregulated Axin protein levels | significantly elevated | activation of TCF4-Luc reporter ([1]; 10^−7M PTH (1-84), 12 hours): activates the Wnt signaling pathway; β-catenin levels in cytosolic and nuclear fractions (β-catenin; 5×10^−7 M PTH (1-84), 30 minutes): stimulated the levels of β-catenin in both the cytoplasm and the nucleus; interaction between endogenous LRP5/6 and PTH1R (PTH1R/LRP5/6 complex): induced the interaction between endogenous LRP5/6 and PTH1R in a time dependent manner; time of peak of PTH-induced LRP5/6-PTH1R interaction (PTH1R/LRP5/6 complex): 1 h; Axin-LRP6 binding (LRP6/Axin binding; listed as PTH1-84): stimulated Axin-LRP6 binding
stimulated Axin-LRP6 binding | PTHrP 1-40: PTHrP fragment 1-40 tested beside PTH ligands | – | – | – | further downregulated Axin protein levels | significantly elevated | –
– | cPTH (39-84): C-terminal fragment of PTH, amino acids 39-84 (APLAPRDAGSQRPRKKEDNVLVESHEKSLGEADKADVNVLTKAKSQ; Parathyroid hormone; UniProt P01270 70-115, looked up, fragment) | – | – | – | – | only a marginal increase | effect on TGF-β-induced transcription activity (SBE-luc) [2]: inhibited TGF-β-induced transcription activity
